Assay results taken from ChEMBL document CHEMBL4665632, “Design, synthesis and biological evaluation of pyridone-aminal derivatives as MNK1/2 inhibitors” (Bioorg Med Chem, 2019).
pIC50: −log10 of the molar value. Calls of active or inactive are those of the source. No cut-off for these calls is given here.

What was measured:
K562 = assay: Antiproliferative activity against human K562 cells assessed as reduction in cell viability incubated for 72 hrs by MTT assay; assay type: functional, cell-based; settings: K562, 72 h
HCT-116 = assay: Antiproliferative activity against human HCT-116 cells assessed as reduction in cell viability at 20 uM incubated for 72 hrs by MTT assay relative to control; assay type: functional
[1] = target: T1, MAP kinase-interacting serine/threonine-protein kinase 2 (Homo sapiens, UniProt Q9HBH9); assay: Inhibition of MNK2 (unknown origin) at 100 nM incubated for 60 mins by HTRF assay
Target sequence in this assay (Q9HBH9 whole entry, looked up, the tested form may be a part): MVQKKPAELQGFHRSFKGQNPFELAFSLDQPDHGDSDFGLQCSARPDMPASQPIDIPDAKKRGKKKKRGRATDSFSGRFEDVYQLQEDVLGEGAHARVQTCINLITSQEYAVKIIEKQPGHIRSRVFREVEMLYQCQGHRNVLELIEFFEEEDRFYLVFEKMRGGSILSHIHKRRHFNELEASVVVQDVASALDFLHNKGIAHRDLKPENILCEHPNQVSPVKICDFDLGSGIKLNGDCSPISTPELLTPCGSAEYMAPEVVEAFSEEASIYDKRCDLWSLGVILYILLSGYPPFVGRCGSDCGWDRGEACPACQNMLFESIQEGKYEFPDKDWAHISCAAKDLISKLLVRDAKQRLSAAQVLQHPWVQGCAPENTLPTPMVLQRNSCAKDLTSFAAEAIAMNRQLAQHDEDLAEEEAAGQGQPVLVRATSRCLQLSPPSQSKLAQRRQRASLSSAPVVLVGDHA

[2] = target: T2, MAP kinase-interacting serine/threonine-protein kinase 1 (Homo sapiens, UniProt Q9BUB5); assay: (§1) Inhibition of recombinant human N-terminal DYKDDDDK-tagged MNK1(1 to 424 residues) expressed in baculovirus expression system using TATKSGSTTKNR as substrate preincubated for 10 mins followed by ATP addition and measured after 40 mins by luminescence based assay
Target sequence in this assay (Q9BUB5 whole entry, the tested form may be a part): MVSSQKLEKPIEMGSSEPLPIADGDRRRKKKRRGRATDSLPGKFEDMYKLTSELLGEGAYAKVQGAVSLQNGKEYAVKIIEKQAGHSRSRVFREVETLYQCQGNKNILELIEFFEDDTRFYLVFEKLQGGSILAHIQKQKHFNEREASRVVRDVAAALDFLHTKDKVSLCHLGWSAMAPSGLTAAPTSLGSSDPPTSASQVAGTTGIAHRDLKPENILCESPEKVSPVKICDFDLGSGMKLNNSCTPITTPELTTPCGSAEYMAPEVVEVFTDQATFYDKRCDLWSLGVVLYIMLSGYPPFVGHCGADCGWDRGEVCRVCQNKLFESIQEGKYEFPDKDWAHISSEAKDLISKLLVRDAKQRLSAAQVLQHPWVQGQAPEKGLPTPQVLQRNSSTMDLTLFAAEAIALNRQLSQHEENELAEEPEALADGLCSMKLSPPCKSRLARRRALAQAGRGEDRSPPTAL

[3] = Antiproliferative activity against […] cells assessed as reduction in cell viability at 20 uM incubated for 72 hrs by MTT assay relative to control; assay type: functional, Mus musculus
MDA-MB-435 = assay: Antiproliferative activity against human MDA-MB-435 cells assessed as reduction in cell viability at 20 uM incubated for 72 hrs by MTT assay relative to control; assay type: functional
[4] = target: T1, MAP kinase-interacting serine/threonine-protein kinase 2; assay: (§2) Inhibition of recombinant human N-terminal GST-tagged MNK2 (1 to 465 residues) expressed in baculovirus expression system using TATKSGSTTKNR as substrate preincubated for 10 mins followed by ATP addition and measured after 40 mins by luminescence based assay
Target sequence in this assay (Q9HBH9 whole entry, the tested form may be a part): as the sequence (Q9HBH9 whole entry, looked up, the tested form may be a part) above

TMD8 = assay: Antiproliferative activity against human TMD8 cells assessed as reduction in cell viability incubated for 72 hrs by MTT assay; assay type: functional, cell-based; settings: TMD8, 72 h
[5] = target: T2, MAP kinase-interacting serine/threonine-protein kinase 1; assay: Inhibition of MNK1 (unknown origin) at 100 nM incubated for 60 mins by HTRF assay
Target sequence in this assay (Q9BUB5 whole entry, looked up, the tested form may be a part): as the sequence (Q9BUB5 whole entry, the tested form may be a part) above

[6] = target: T2, MAP kinase-interacting serine/threonine-protein kinase 1; assay: as §1, with “Potency index, ratio of IC50 of eFT508 to IC50 of compound for inhibition” for “Inhibition”; settings: time 50.0 min
Target sequence in this assay (Q9BUB5 whole entry, looked up, the tested form may be a part): as the sequence (Q9BUB5 whole entry, the tested form may be a part) above

MV4-11 = assay: Antiproliferative activity against human MV4-11 cells assessed as reduction in cell viability incubated for 72 hrs by MTT assay; assay type: functional, cell-based; settings: MV4-11, 72 h
[7] = target: T1, MAP kinase-interacting serine/threonine-protein kinase 2; assay: as §2, with “Potency index, ratio of IC50 of eFT508 to IC50 of compound for inhibition” for “Inhibition”; settings: time 50.0 min
Target sequence in this assay (Q9HBH9 whole entry, looked up, the tested form may be a part): as the sequence (Q9HBH9 whole entry, looked up, the tested form may be a part) above

A549 = assay: Antiproliferative activity against human A549 cells assessed as reduction in cell viability incubated at 20 uM for 72 hrs by MTT assay relative to control; assay type: functional
[8] = target: Cyclin-dependent kinase 2 (Homo sapiens) (UniProt P24941); assay: Inhibition of CDK2 (unknown origin) at 500 nM relative to control
[9] = target: Tyrosine-protein kinase BTK (Homo sapiens) (UniProt Q06187); assay: Inhibition of BTK (unknown origin) at 500 nM relative to control
Tyrosine-protein kinase BTK (Homo sapiens), sequence (Q06187 whole entry): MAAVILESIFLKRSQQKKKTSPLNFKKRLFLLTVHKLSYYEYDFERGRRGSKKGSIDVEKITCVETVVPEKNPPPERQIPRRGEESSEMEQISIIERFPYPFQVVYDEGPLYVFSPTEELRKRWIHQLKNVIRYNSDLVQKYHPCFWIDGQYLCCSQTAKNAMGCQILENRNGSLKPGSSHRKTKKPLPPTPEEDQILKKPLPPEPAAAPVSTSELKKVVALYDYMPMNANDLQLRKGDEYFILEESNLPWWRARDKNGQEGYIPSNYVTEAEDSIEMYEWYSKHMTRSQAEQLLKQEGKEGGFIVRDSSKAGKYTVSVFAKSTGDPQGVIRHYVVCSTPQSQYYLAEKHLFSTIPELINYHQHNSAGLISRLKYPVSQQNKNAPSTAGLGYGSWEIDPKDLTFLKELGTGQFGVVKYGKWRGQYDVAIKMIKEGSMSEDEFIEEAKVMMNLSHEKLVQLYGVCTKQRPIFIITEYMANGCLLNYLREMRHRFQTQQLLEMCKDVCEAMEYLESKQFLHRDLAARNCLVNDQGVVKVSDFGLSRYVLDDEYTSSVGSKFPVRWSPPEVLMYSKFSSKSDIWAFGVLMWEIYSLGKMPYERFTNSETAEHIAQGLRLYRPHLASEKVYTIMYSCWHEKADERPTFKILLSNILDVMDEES

[10] = target: T3, MAP kinase-interacting serine/threonine-protein kinase 1/2 (Homo sapiens) (UniProt Q9HBH9+Q9BUB5); assay: Inhibition of MNK1/MNK2 in […] cells assessed as reduction in eIF4E phosphorylation incubated for 24 hrs by Western blot analysis; assay type: cell-based
[11] = Toxicity in BALB/c mouse xenografted with […] cells assessed as weight loss at 20 to 40 mg/kg, ip administered for 14 days; assay type: organism-based; settings: in vivo, 336 h, dose 20-40 mg/kg, time 14 day
[12] = target: Macrophage colony-stimulating factor 1 receptor (Homo sapiens) (UniProt P07333); assay: Inhibition of CSF1R (unknown origin) at 500 nM relative to control
Macrophage colony-stimulating factor 1 receptor (Homo sapiens), sequence (P07333 whole entry): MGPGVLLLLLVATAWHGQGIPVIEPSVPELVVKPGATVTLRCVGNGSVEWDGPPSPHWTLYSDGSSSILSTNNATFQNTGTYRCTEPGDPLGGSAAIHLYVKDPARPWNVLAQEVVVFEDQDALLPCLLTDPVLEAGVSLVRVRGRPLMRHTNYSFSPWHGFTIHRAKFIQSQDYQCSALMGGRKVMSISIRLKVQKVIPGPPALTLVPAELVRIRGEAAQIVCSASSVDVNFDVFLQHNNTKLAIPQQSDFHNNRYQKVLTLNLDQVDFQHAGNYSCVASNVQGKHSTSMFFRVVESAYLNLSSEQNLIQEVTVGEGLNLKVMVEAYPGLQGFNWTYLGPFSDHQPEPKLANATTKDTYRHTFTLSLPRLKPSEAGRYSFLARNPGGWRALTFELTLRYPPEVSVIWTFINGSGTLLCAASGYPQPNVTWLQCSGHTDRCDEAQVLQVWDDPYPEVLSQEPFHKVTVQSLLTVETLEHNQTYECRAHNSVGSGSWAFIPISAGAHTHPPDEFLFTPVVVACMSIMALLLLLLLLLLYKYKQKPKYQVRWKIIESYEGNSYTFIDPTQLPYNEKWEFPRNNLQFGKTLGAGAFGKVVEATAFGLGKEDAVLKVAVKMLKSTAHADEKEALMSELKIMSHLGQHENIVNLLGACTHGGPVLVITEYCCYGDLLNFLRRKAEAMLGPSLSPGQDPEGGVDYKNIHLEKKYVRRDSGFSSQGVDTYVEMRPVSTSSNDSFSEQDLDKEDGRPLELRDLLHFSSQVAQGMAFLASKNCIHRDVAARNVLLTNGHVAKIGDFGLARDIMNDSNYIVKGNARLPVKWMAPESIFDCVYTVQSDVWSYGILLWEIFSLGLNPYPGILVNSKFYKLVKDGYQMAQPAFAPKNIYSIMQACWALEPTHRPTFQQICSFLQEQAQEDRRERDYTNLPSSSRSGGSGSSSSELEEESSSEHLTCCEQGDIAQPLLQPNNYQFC

[13] = Antitumor activity against […] cells xenografted in BALB/c mouse assessed as tumor growth inhibition at 40 mg/kg, ip administered for 14 days relative to control; assay type: functional; settings: 336 h, time 14 day, read-out: TGI
[14] = target: T2, MAP kinase-interacting serine/threonine-protein kinase 1; assay: Inhibition of MNK1 (unknown origin) at 500 nM relative to control
Target sequence in this assay (Q9BUB5 whole entry, looked up, the tested form may be a part): as the sequence (Q9BUB5 whole entry, the tested form may be a part) above

[15] = target: T3, MAP kinase-interacting serine/threonine-protein kinase 1/2 (Homo sapiens); assay: Inhibition of MNK1/MNK2 in […] cells assessed as reduction in eIF4E phosphorylation at 1 uM incubated for 24 hrs by Western blot analysis relative to control; assay type: cell-based
[16] = target: T4, Interleukin-1 receptor-associated kinase 4 (Homo sapiens) (UniProt Q9NWZ3); assay: Inhibition of IRAK4 (unknown origin) at 500 nM relative to control
T4 sequence (whole entry): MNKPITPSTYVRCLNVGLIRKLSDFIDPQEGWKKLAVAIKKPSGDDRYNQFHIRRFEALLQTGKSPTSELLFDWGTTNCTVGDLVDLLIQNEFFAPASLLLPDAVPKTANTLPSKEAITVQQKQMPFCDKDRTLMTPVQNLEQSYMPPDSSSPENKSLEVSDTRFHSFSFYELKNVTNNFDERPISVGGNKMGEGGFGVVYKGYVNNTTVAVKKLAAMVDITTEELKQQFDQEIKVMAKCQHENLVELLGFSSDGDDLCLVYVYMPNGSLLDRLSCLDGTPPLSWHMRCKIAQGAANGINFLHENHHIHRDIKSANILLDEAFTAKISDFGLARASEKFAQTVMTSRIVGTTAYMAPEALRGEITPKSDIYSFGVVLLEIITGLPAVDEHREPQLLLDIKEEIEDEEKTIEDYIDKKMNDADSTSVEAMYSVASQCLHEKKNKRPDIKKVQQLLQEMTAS

[17] = target: Cyclin-dependent kinase 1 (Homo sapiens) (UniProt P06493); assay: Inhibition of CDK1 (unknown origin) at 500 nM relative to control
Cyclin-dependent kinase 1 (Homo sapiens), sequence (P06493 whole entry, looked up): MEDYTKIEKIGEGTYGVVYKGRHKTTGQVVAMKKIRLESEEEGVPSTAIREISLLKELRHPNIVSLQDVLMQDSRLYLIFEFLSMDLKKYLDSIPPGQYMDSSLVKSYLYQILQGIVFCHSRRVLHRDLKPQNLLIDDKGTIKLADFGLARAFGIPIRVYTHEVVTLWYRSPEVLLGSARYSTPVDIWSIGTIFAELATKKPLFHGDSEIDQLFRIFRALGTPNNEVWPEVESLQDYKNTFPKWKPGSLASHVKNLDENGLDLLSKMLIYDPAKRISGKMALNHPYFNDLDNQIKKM

CT26 = assay: Antitumor activity against […] cells xenografted in BALB/c mouse assessed as tumor growth inhibition dosed ip for 14 days; assay type: functional, organism-based; settings: time 14.0 day
[18] = target: AMP-activated protein kinase, AMPK (Homo sapiens) (UniProt P54646+O43741+P54619+Q9UGJ0+Q9Y478+Q13131+Q9UGI9); assay: Inhibition of AMPK (unknown origin) at 500 nM relative to control; assay type: protein-complex assay
[19] = target: Receptor-type tyrosine-protein kinase FLT3 (Homo sapiens) (UniProt P36888); assay: Inhibition of FLT3 (unknown origin) at 500 nM relative to control
[20] = target: T3, MAP kinase-interacting serine/threonine-protein kinase 1/2 (Homo sapiens); assay: Inhibition of MNK1/MNK2 in […] cells assessed as reduction in eIF4E level at 0.25 to 1 incubated for 24 hrs by Western blot analysis; assay type: cell-based; settings: dose microM 0.25-1, time 24.0 hrs
[21] = Antitumor activity against […] cells xenografted in BALB/c mouse assessed as tumor growth inhibition at 20 mg/kg, ip administered for 14 days relative to control; assay type: functional; settings: 336 h, time 14 day, read-out: TGI
[22] = target: Tyrosine-protein kinase JAK1 (Homo sapiens) (UniProt P23458); assay: Inhibition of JAK1 (unknown origin) at 500 nM relative to control
Tyrosine-protein kinase JAK1 (Homo sapiens), sequence (P23458 whole entry): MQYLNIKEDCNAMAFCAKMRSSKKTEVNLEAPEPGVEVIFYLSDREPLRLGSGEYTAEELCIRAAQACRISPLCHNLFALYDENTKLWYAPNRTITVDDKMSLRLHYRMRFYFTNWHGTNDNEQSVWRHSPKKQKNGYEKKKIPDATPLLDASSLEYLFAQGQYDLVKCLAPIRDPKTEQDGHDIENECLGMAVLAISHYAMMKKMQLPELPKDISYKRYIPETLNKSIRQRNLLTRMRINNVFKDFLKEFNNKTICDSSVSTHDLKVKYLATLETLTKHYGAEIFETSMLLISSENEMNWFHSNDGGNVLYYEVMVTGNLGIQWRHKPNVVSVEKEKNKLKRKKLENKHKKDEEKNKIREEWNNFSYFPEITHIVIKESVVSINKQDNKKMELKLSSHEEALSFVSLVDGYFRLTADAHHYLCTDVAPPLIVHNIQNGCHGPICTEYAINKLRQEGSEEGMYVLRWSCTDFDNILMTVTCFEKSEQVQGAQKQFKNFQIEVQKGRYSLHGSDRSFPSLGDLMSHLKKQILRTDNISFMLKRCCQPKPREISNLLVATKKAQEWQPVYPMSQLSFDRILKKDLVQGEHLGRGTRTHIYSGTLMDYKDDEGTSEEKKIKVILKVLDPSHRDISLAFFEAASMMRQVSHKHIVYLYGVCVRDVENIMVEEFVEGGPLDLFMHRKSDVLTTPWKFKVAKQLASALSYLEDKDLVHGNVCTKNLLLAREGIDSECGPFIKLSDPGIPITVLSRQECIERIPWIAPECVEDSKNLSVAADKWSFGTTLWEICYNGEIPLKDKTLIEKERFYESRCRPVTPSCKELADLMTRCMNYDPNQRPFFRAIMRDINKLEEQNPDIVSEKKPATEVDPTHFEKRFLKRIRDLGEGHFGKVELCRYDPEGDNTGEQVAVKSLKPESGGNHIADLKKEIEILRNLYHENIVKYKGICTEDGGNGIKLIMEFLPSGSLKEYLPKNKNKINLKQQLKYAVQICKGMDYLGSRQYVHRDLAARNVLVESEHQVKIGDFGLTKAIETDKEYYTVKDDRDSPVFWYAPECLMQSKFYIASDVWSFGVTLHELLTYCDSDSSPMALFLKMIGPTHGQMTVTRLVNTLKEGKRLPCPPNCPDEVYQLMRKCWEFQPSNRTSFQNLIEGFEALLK

[23] = target: T1, MAP kinase-interacting serine/threonine-protein kinase 2; assay: Inhibition of MNK2 (unknown origin) at 500 nM relative to control
Target sequence in this assay (Q9HBH9 whole entry, looked up, the tested form may be a part): as the sequence (Q9HBH9 whole entry, looked up, the tested form may be a part) above

SMILES | pIC50 (K562) | inhibition [1] [%] | pIC50 [2] | pIC50 [4] | inhibition [5] [%] | pIC50 (MV4-11) | inhibition at 20 µM (HCT-116) [%] | inhibition at 20 µM [3] [%] | inhibition at 20 µM (MDA-MB-435) [%] | pIC50 (TMD8) | inhibition at 20 µM (A549) [%] | also measured
Cc1cc(Nc2ccnnc2)c(=O)n2c1C(=O)NC21CCCCC1 | < 4.70 | 70.3 | 6.80 | 6.79 | 59.8 | 4.88 | 22.7 | 24.3 | 33 | 5.06 | 14 | 
Cc1cc(Nc2cc(NC3CCNCC3)ncn2)c(=O)n2c1C(=O)NC21CCCCC1 | < 4.70 | 75.8 | 7.26 | 7.30 | 66.4 | 4.73 | 35.2 | 18.5 | 59.2 | 4.96 | 43.9 | 
Cc1cc(Nc2ccncc2)c(=O)n2c1C(=O)NC21CCCCC1 | < 4.70 | 88.3 | 6.62 | 6.86 | 60.7 | < 4.70 | 12.9 | 24 | 48.6 | < 4.70 | 23.1 | 
Cc1cc(Nc2cc(N)ncn2)c(=O)n2c1C(=O)NC21CCCCC1 [TOMIVOSERTIB] | 4.87 | 98.8 |  |  | 87.8 | 4.84 | 52.7 | 43.1 | 49.2 | 5.60 | 40.6 | inhibition in vivo at 20 mg/kg [21]: 59%
Cc1cc(Nc2ccnc(N)c2)c(=O)n2c1C(=O)NC21CCCCC1 | < 4.70 | 70.5 | 7.28 | 7.32 | 72.5 | < 4.70 | 42.2 | 30.1 | 37.7 | 4.95 | 21.5 | 
Cc1cc(Nc2ccnc(N)n2)c(=O)n2c1C(=O)NC21CCCCC1 | < 4.70 | 66.3 | 6.41 | 6.64 | 52.7 | < 4.70 | 30.7 | 35 | 25.8 | < 4.70 | 22.6 | 
Cc1cc(Nc2ccncn2)c(=O)n2c1C(=O)NC21CCCCC1 | 4.85 | 97.3 | 7.98 | 8.08 | 82.2 | < 4.70 | 40.1 | 48.3 | 52.4 | 5.21 | 40.5 | 

Second part, led by results:

pIC50 (K562) | inhibition [1] [%] | pIC50 [2] | pIC50 [4] | inhibition [5] [%] | pIC50 (MV4-11) | SMILES | inhibition at 20 µM (HCT-116) [%] | inhibition at 20 µM [3] [%] | inhibition at 20 µM (MDA-MB-435) [%] | pIC50 (TMD8) | inhibition at 20 µM (A549) [%] | also measured
4.88 | 89 | 8.06 | 8.12 | 77.2 | 5.02 | Cc1cc(Nc2cc(N3CCN(CCN(C)C)CC3)ncn2)c(=O)n2c1C(=O)NC21CCCCC1 | 30.5 | 40.5 | 35.2 | 5.72 | 48.4 | Ratio IC50 [6]: 2; Ratio IC50 [7]: 2
4.93 | 91.2 | 8.15 | 8.21 | 76.5 | 5.00 | Cc1cc(Nc2cc(N3CCN(CCCN(C)C)CC3)ncn2)c(=O)n2c1C(=O)NC21CCCCC1 | 42.9 | 58.3 | 49 | 6.04 | 41.3 | inhibition [8]: 7%; inhibition [9]: 3%; inhibition [10]: Dose-dependent effect; Activity [11]: Non-Toxic; inhibition [12]: 6%; inhibition in vivo at 40 mg/kg [13]: 60.4%; inhibition [14]: 96%; inhibition [15]: 100%; inhibition [16]: 21%; inhibition [17]: 4%; TGI (CT26): Dose-dependent effect; inhibition [18]: 11%; inhibition [19]: 9%; inhibition [20]: inactive; inhibition in vivo at 20 mg/kg [21]: 41.4%; Ratio IC50 [6]: 2; Ratio IC50 [7]: 2; inhibition [22]: 6%; inhibition [23]: 103%
5.06 | 87.7 | 7.68 | 7.74 | 66.5 | 4.96 | Cc1cc(Nc2cc(N3CCNCC3)ncn2)c(=O)n2c1C(=O)NC21CCCCC1 | 59.9 | 18.8 | 35.2 | 5.74 | 24.6 | 
